{"source": "patent US20180186742A1", "about": "“PICOLINAMIDES AS FUNGICIDES” (Dow AgroSciences LLC, priority 2017, published 2018)", "format_in_all_cases": "in vivo", "key": {"[1]": {"tested_on": "Puccinia triticina", "assay": "Wheat brown rust (PUCCRT), disease control on wheat seedlings", "settings": "low volume application at 121.5 g/H, wheat brown rust", "method_in_brief": "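Compounds in acetone, diluted with nine volumes of water containing 110 ppm Triton X-100, sprayed to run-off on first-leaf Yuma wheat seedlings; track-spray tests used EC formulations with 0.1% Trycol 5941. Puccinia triticina spores applied before or after treatment. Overnight dark dew room at 22° C, 100% humidity, then greenhouse at 24° C.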"}, "[2]": {"tested_on": "Parastagonospora nodorum", "assay": "Wheat glume blotch (LEPTNO), disease control on wheat seedlings", "settings": "1DP test at 100 ppm, read-out: LEPTNO disease control rating", "protocol": "Technical grades of materials were dissolved in acetone, which were then mixed with nine volumes of water containing 110 ppm Triton X-100. The fungicide solutions were applied onto wheat seedlings using an automated booth sprayer to run-off. All sprayed plants were allowed to air dry prior to further handling. All fungicides were evaluated using the aforementioned method for their activity vs. all target diseases, unless stated otherwise. Wheat leaf blotch and brown rust activity were also evaluated using track spray applications, in which case the fungicides were formulated as EC formulations, containing 0.1% Trycol 5941 in the spray solutions. Wheat plants (variety Yuma) were grown from seed in a greenhouse in 50% mineral soil/50% soil-less Metro mix until the first leaf was fully emerged, with 7-10 seedlings per pot. These plants were inoculated with an aqueous spore suspension of Parastagonospora nodorum 24 hr after fungicide treatments. After inoculation the plants were kept in 100% relative humidity (one day in a dark dew chamber followed by two days in a lighted dew chamber at 20° C.) to permit spores to germinate and infect the leaf. The plants were then transferred to a greenhouse set at 20° C. for disease to develop. Fungicide formulation, application and disease assessment followed the procedures as described in the Example A."}, "[3]": {"tested_on": "Phakopsora pachyrhizi", "assay": "Asian soybean rust (PHAKPA), disease control on soybean seedlings", "settings": "High volume application at 25 ppm", "method_in_brief": "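Two-week-old Williams 82 soybean seedlings were sprayed to run-off with compound in acetone/water (1:9) containing 0.011% Tween 20. Inoculation was 3 days before (curative) or 1 day after (protectant) treatment, followed by 24 h dark dew at 22 °C, 100% RH, then 23 °C; disease severity scored on sprayed leaves.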"}, "[4]": {"tested_on": "Rhyncosporium secalis", "assay": "Barley scald (RHYNSE), disease control on barley seedlings", "settings": "Hordeum vulgare, 24 h, 1DP (1 Day Protectant) test at 100 ppm", "protocol": "Technical grades of materials were dissolved in acetone, which were then mixed with nine volumes of water containing 110 ppm Triton X-100. The fungicide solutions were applied onto wheat seedlings using an automated booth sprayer to run-off. All sprayed plants were allowed to air dry prior to further handling. All fungicides were evaluated using the aforementioned method for their activity vs. all target diseases, unless stated otherwise. Wheat leaf blotch and brown rust activity were also evaluated using track spray applications, in which case the fungicides were formulated as EC formulations, containing 0.1% Trycol 5941 in the spray solutions. Barley seedlings (variety Harrington) were propagated in soil-less Metro mix, with each pot having 8 to 12 plants, and used in the test when first leaf was fully emerged. Test plants were inoculated by an aqueous spore suspension of Rhyncosporium secalis 24 hr after fungicide treatments. After inoculation the plants were kept in a dew room at 20° C. with 100% relative humidity for 48 hr. The plants were then transferred to a greenhouse set at 20° C. for disease to develop. Fungicide formulation, application and disease assessment on the sprayed leaves followed the procedures as described in the Example A."}, "[5]": {"tested_on": "Cercospora beticola", "assay": "Leaf spot of sugar beets (CERCBE), disease control on sugar beet plants", "settings": "1DP test at 100 ppm, read-out: CERCBE disease control rating", "protocol": "Technical grades of materials were dissolved in acetone, which were then mixed with nine volumes of water containing 110 ppm Triton X-100. The fungicide solutions were applied onto wheat seedlings using an automated booth sprayer to run-off. All sprayed plants were allowed to air dry prior to further handling. All fungicides were evaluated using the aforementioned method for their activity vs. all target diseases, unless stated otherwise. Wheat leaf blotch and brown rust activity were also evaluated using track spray applications, in which case the fungicides were formulated as EC formulations, containing 0.1% Trycol 5941 in the spray solutions. Sugar beet plants (variety HH88) were grown in soil-less Metro mix and trimmed regularly to maintain a uniform plant size prior to test. Plants were inoculated with a spore suspension 24 hr after fungicide treatments. Inoculated plants were kept in a dew chamber at 22° C. for 48 hr then incubated in a greenhouse set at 24° C. under a clear plastic hood with bottom ventilation until disease symptoms were fully expressed. Fungicide formulation, application and disease assessment on the sprayed leaves followed the procedures as described in the Example A."}}, "note": "Like-named read-outs stand apart in the source and are kept apart here."}
{"smiles": "COc1ccnc(C(=O)N[C@@H](C)C(=O)O[C@@H](C)[C@H](c2ccccc2C)C(C)C)c1OC(=O)C(C)C", "note": "[Compound 375]", "values": [{"measurement": "pest or weed control at 121.5 g/ha", "setting": "[1]; 24 h, 1 Day Protectant, read-out: PUCCRT 1DP disease control, LV activity", "result": "> 80", "unit": "%"}, {"measurement": "pest or weed control at 121.5 g/ha", "setting": "[1]; 72 h, 3 Day Curative, read-out: PUCCRT 3DC disease control, LV activity", "result": "> 80", "unit": "%"}, {"measurement": "pest or weed control at 100 ppm", "setting": "[2]", "result": "> 80", "unit": "%"}, {"measurement": "pest or weed control at 25 ppm", "setting": "[3]; 24 h, 1 Day Protectant, read-out: PHAKPA 1DP disease control rating", "result": "> 80", "unit": "%"}, {"measurement": "pest or weed control at 25 ppm", "setting": "[3]; 72 h, 3 Day Curative, read-out: PHAKPA 3DC disease control rating", "result": "> 80", "unit": "%"}, {"measurement": "pest or weed control at 100 ppm", "setting": "[4]", "result": "< 80", "unit": "%"}, {"measurement": "pest or weed control at 100 ppm", "setting": "[5]", "result": "> 80", "unit": "%"}]}
